Values after ≈ are worked out from the molar mass of the structure shown.

Data set [1] relates to HUVEC. Nature of the data set: Angiogenic activity against HUVEC cells assessed as relative area of tube formation at 100 uM incubated for 96 hrs by Alexa fluor 488 staining based analysis. Type of data set: functional, Homo sapiens.
Data set [2] relates to Human alphaherpesvirus 1. Nature of the data set: Antiviral activity against lethal systemic HSV-1 123 infected in po dosed Swiss mouse model assessed as increase in animal survival administered as single double strength loading dose at 7 hrs post-inoculation and single strength dose at 23, 31, 47, 55, 71, 79 hrs post-inoculation and monitored for 21 days. Format: functional. The note with it: time 21 day.

Data set [3] concerns Human alphaherpesvirus 3. Nature of the data set: Antiviral activity against thymidine kinase positive VZV V8907 infected in HFF cells assessed as reduction in viral replication incubated for 10 days by crystal violet staining based microplate reader analysis. Type of data set: functional, organism-based. The note with it: Human alphaherpesvirus 3, V8907, HFF, 240 h.
Data set [4] relates to Human alphaherpesvirus 3. Nature of the data set: Antiviral activity against thymidine kinase positive VZV OKA infected in HFF cells assessed as reduction in viral replication incubated for 10 days by crystal violet staining based microplate reader analysis. Type of data set: functional, organism-based. The note with it: Human alphaherpesvirus 3, OKA, 240 h.
Data set [5] in a line: Antiproliferative against human HFF cells assessed as inhibition of cell growth by neutral red uptake analysis. Type of data set: toxicity, cell-based.
Data set [6] relates to Human alphaherpesvirus 3. Nature of the data set: Antiviral activity against thymidine kinase positive VZV DKG infected in HFF cells assessed as reduction in viral replication incubated for 10 days by crystal violet staining based microplate reader analysis. Format: functional, organism-based. The note with it: Human alphaherpesvirus 3, DKG, 240 h.
For data set [7], the system named is Human alphaherpesvirus 3. Nature of the data set: Antiviral activity against thymidine kinase positive VZV Ellen infected in HFF cells assessed as reduction in viral replication incubated for 10 days by crystal violet staining based microplate reader analysis. Type of data set: functional, organism-based. The note with it: Human alphaherpesvirus 3, Ellen, 240 h.

The subject of data set [8] is Human alphaherpesvirus 1. Nature of the data set: Antiviral activity against thymidine kinase positive HSV-1 SC-16 infected in HFF cells assessed as reduction in viral replication incubated for 3 days by crystal violet staining based microplate reader analysis. Type of data set: functional, organism-based. The note with it: Human alphaherpesvirus 1, SC-16, HFF, 72 h.

Data set [9] has as its system Human alphaherpesvirus 1. Nature of the data set: Antiviral activity against thymidine kinase positive HSV-1 123 infected in HFF cells assessed as reduction in viral replication incubated for 3 days by crystal violet staining based microplate reader analysis. The note with it: Human alphaherpesvirus 1, 123, HFF, 72 h. Type of data set: functional, organism-based.
Data set [10] has as its system Human alphaherpesvirus 3. Nature of the data set: Antiviral activity against thymidine kinase positive VZV V8602/5-1-1 infected in HFF cells assessed as reduction in viral replication incubated for 10 days by crystal violet staining based microplate reader analysis. Format: functional, organism-based. The note with it: Human alphaherpesvirus 3, V8602/5-1-1, HFF, 240 h.

Data set [11] has as its system Human alphaherpesvirus 1. Nature of the data set: Antiviral activity against thymidine kinase positive HSV-1 E-377 infected in HFF cells assessed as reduction in viral replication incubated for 3 days by crystal violet staining based microplate reader analysis. Type of data set: functional, organism-based. The note with it: Human alphaherpesvirus 1, E-377, HFF, 72 h.

Data set [12] has as its system Human alphaherpesvirus 1. Nature of the data set: Antiviral activity against lethal intracerebral HSV-1 123 infected in po dosed Swiss mouse model assessed as increase in animal survival administered as single double strength loading dose at 7 hrs post-inoculation and single strength dose at 23, 31, 47, 55, 71, 79 hrs post-inoculation and monitored for 21 days. The note with it: time 21 day. Format: functional.

Data set [13] has as its system Human betaherpesvirus 5. Nature of the data set: Antiviral activity against HCMV assessed as inhibition of viral growth. Type of data set: functional, organism-based.
A further data set relates to Murid betaherpesvirus 1. Nature of the data set: Antiviral activity against MCMV Smith infected in MEF cells assessed as reduction in plaque formation by plaque reduction assay. Format: functional. The note with it: Murid betaherpesvirus 1, Smith, read-out: ED50 (the source's name). (In general: Plaque reduction counts the foci of infection that form in a cell layer.)

For data set [14], the system named is Human immunodeficiency virus. Nature of the data set: Antiviral activity against HIV assessed as inhibition of viral growth. Format: functional, organism-based. The note with it: Human immunodeficiency virus 1.
Data set [15] relates to Hepatitis B virus. Nature of the data set: Antiviral activity against HBV assessed as inhibition of viral growth. Format: functional, organism-based.
For data set [16], the system named is Human alphaherpesvirus 1. Nature of the data set: Antiviral activity against HSV-1 assessed as inhibition of viral growth. Type of data set: functional, organism-based.
Another data set has as its system Human alphaherpesvirus 2. Nature of the data set: Antiviral activity against HSV-2 assessed as inhibition of viral growth. Format: functional, organism-based.
Data set [17] deals with Human immunodeficiency virus 1. Nature of the data set: Antiviral activity against HIV-1 HTLV-IIIB infected in human MT4 cells assessed as inhibition of viral replication. Format: functional, organism-based. The note with it: Human immunodeficiency virus 1, HTLV-IIIB.
In data set [18] the test system is HUVEC. Nature of the data set: Angiogenic activity against HUVEC cells assessed as relative area of tube formation at 100 uM incubated for 10 days by tube formation assay. Type of data set: functional, Homo sapiens. The note with it: time 10 day.
Another data set deals with Cytomegalovirus. Nature of the data set: Antiviral activity against CMV AD-169 infected in HEL cells assessed as reduction in virus plaque formation. Type of data set: functional, organism-based. The note with it: Human betaherpesvirus 5, AD-169, HEL.
In data set [19] the test system is Human immunodeficiency virus 1. Nature of the data set: Antiviral activity against HIV-1 assessed as inhibition of viral replication. Type of data set: functional, organism-based.
A short description of data set [20]: Cytotoxicity against human CCD-18Co cells assessed as inhibition of cell growth by colorimetric method. Format: toxicity, cell-based.
A short description of data set [21]: Cytotoxicity against human HB611 cells assessed as inhibition of cell growth incubated for 48 hrs by colorimetric method. Type of data set: functional.
The subject of data set [22] is Human immunodeficiency virus 1. Nature of the data set: Antiviral activity against HIV-1 HTLV-IIIB infected in human MT4 cells assessed as inhibition of viral replication incubated for 4 days by immunofluorescence assay. Type of data set: functional, organism-based. The note with it: Human immunodeficiency virus 1, HTLV-IIIB, MT4, 96 h.
For data set [23], the system named is Human betaherpesvirus 5. Nature of the data set: Antiviral activity against HCMV AD169 infected in HELF cells by plaque reduction assay. Type of data set: functional, organism-based. The note with it: Human betaherpesvirus 5, AD169, HELF.
Data set [24] concerns Hepatitis B virus. Nature of the data set: Antiviral activity against HBV infected in human HB611 cells assessed as inhibition of viral DNA replication incubated for 15 days by SDS-PAGE based autoradiographic analysis. Format: functional, organism-based. The note with it: HB611, 360 h.
Data set [25] in a line: Cytotoxicity against human Detroit 551 cells assessed as inhibition of cell growth by colorimetric method. Format: toxicity, cell-based.
Data set [26] deals with Human immunodeficiency virus. Nature of the data set: Antiviral activity against HIV infected in human MT4 cells by plaque reduction assay. Format: functional, organism-based. The note with it: Human immunodeficiency virus 1, MT4.
The test system of a further data set is MT4. Nature of the data set: Cytotoxicity against human MT4 cells assessed as inhibition of cell growth. Format: functional.
For data set [27], the system named is Human betaherpesvirus 5. Nature of the data set: Antiviral activity against HCMV AD169 infected in HEL cells assessed as reduction in virus induced cytopathogenicity by plaque reduction assay. Type of data set: functional, organism-based. The note with it: Human betaherpesvirus 5, AD169, HEL.

For `Nc1nc(I)nc2c1ncn2[C@@H]1C[C@H](CO)[C@H]1CO`, the Ratio in the data set with HUVEC [1] is recorded as 2.01.

By IC50 is commonly meant the point on the concentration scale where inhibition reaches its midpoint. On to `Cc1cn([C@@H]2O[C@H](CO)[C@H]2CO)c(=O)[nH]c1=O`, for which the ED50 in the data set with Human alphaherpesvirus 1 [2] amounted to 142 mg/kg.day; in the data set with Human alphaherpesvirus 1 [12], 211 mg/kg.day. The EC50 in the data set with Human alphaherpesvirus 3 [3] was found to be 0.01 µM; with Human alphaherpesvirus 3 [4], 0.01 µM; with Human alphaherpesvirus 3 [6], 0.01 µM; in the data set on Human alphaherpesvirus 3 [7] it was 0.01 µM; in the data set with Human alphaherpesvirus 1 [8], 0.012 µM; in the data set with Human alphaherpesvirus 1 [9], 0.012 µM. Also, the EC50 with Human alphaherpesvirus 3 [10] came to 0.01 µM; with Human alphaherpesvirus 1 [11], 0.012 µM. Also, in [5], the IC50 was more than 100 µM.

As for `Nc1ncnc2c1ncn2[C@@H]1C[C@H](CO)[C@H]1CO`, the IC50 in the data set on Human betaherpesvirus 5 [13] was 12 µM; in [14], 0.03 µM; with Hepatitis B virus [15], 0.024 µM; in the data set with Human alphaherpesvirus 1 [16], 1.6 µM; with Human alphaherpesvirus 2, 1.6 µM. Further, in the data set with Murid betaherpesvirus 1, the EC50 was determined as 0.05 mg/L (≈ 0.201 µM).

As to `Nc1nc(Cl)nc2c1ncn2[C@@H]1O[C@H](CO)[C@H]1CO`, the IC50 in data set [17] was 0.44 µM.

Turning to `COc1nc(N)c2ncn([C@@H]3C[C@H](CO)[C@H]3CO)c2n1`, the Ratio in the data set with HUVEC [18] was determined as 1.87.

For the compound `C=C1C[C@@H](n2cnc3c(=O)[nH]c(N)nc32)[C@@H]1CO`, the EC50 in the data set on Cytomegalovirus was 70 mg/L (≈ 283 µM).

For `Nc1nc(Br)nc2c1ncn2[C@@H]1C[C@H](CO)[C@H]1CO`, the Ratio in the data set with HUVEC [1] is 2.1.

Consider `CC(C)Oc1nc(N)c2ncn([C@@H]3C[C@H](CO)[C@H]3CO)c2n1`, for which the Ratio in the data set with HUVEC [18] is recorded as 1.9.

In the case of `Cc1cn([C@H]2C[C@H](N=[N+]=[N-])[C@@H](CO)O2)c(=O)[nH]c1=O` [ZIDOVUDINE], in data set [19], the EC50 came to 0.003 mg/L (≈ 0.0112 µM).

In general, CC50 refers to the concentration at which the toxic effect on the cells reaches its halfway point. As for `Nc1nc2c(ncn2[C@@H]2O[C@H](CO)[C@H]2CO)c(=O)[nH]1`, the IC50 in data set [20] is more than 300 µM; in the data set on Human betaherpesvirus 5 [23], 1 µM; in the data set with Hepatitis B virus [24], 1.5 µM; in [25], more than 300 µM. The CC50 in data set [21] is more than 1000 µM. The EC50 in [22] was found to be 2.2 µM.

In turn, `Nc1ncnc2c1ncn2[C@@H]1O[C@H](CO)[C@@H]1O` returned an IC50 in data set [26] of 0.54 mg/L (≈ 2.28 µM).

As to `Nc1nc(Cl)nc2c1ncn2[C@@H]1C[C@@H](CO)[C@H]1CO`, the Ratio in the data set with HUVEC [18] is listed as 3.43.

As for `O=c1[nH]cnc2c1ncn2[C@@H]1O[C@H](CO)[C@H]1CO`, the EC50 in data set [22] amounted to 2.2 µM. Also, the CC50 in the data set on MT4 turned out to be 330 µM. This compound yielded an IC50 in the data set on Human betaherpesvirus 5 [23] of 18 µM.

Regarding `Nc1ncnc2c1ncn2N1C[C@H](CO)[C@H]1CO`, the EC50 was found to be 0.37 mg/L (≈ 1.48 µM) in [19], 33.2 mg/L (≈ 133 µM) in the data set on Human alphaherpesvirus 1 [16] and 34.9 mg/L (≈ 139 µM) in the data set on Human alphaherpesvirus 2.

As for `Nc1nc2c(ncn2COC(CO)CO)c(=O)[nH]1` [GANCICLOVIR], the EC50 in the data set on Murid betaherpesvirus 1 is 1 mg/L (≈ 3.92 µM); in the data set with Human betaherpesvirus 5 [27], 0.71 mg/L (≈ 2.78 µM).

For `O=C(Nc1ncnc2c1ncn2[C@@H]1O[C@H](CO)[C@H]1O)c1ccccc1`, in data set [26], the IC50 is 5.5 mg/L (≈ 16.1 µM).

Source of the values: ChEMBL document CHEMBL5325393, “A mini-review on synthesis and antiviral activity of natural product oxetanocin A derivatives” (Bioorg Med Chem, 2022).
